Test results as given in patent US10450615B2, “Methods and compositions for detecting gastrointestinal and other cancers” (Case Western Reserve University, priority 2003, dated 2019).

Test system: vimentin gene expression in colon cancer cell lines
Experiment: RT-PCR of vimentin expression in colon cancer cell lines after 5-azacytidine treatment
Assay type: cell-based, human
Details: FIG. 2, cell lines with vimentin DNA methylation, optimal tolerated doses ranging from 1 μg/ml to 3 μg/ml, reactivated in V400, V429, V503, RCA, V5, RKO, V432, V703, V457
Description: The cultures were grown and treated as described previously (Veigl, et al., 1998, Proc. Natl. Acad. Sci. USA, 95:8698-8702). The optimal tolerated doses were determined for each treated line, and two doses were used for some lines, ranging from 1 μg/ml to 3 μg/ml.
To establish that methylation was responsible for silencing vimentin gene expression, cell lines with vimentin DNA methylation were treated with 5-azacytidine (5-azaC), a demethylating agent.

SMILES: Nc1ncn([C@@H]2O[C@H](CO)[C@@H](O)[C@H]2O)c(=O)n1 [5-azaC, 5-azacytidine]
- colon cancer cell lines in which vimentin expression was reactivated (induced): 9 of 12
